Experimental data from US4029790A, “1-Benzoyl-2 or 4 [2-(4-phenyl-piperazino)-ethyl]-piperidines” (Centre European de Recherches Mauvernay, priority 1974, dated 1977).
Where two headings read alike, the source gives them in different places.

Assays:
[1] = test system: Histaminic bronchospasm; assay: Histaminic bronchospasm in the Guinea Pig (histamine aerosol technique); format: in vivo; conditions: for responders at 25 mg/kg: * Dose used: 25 mg/kg P.O.; for ED50: read-out: Bronchospasmolytic activity ED50; for affinity for the bronchopulmonary system; activities (in words): summary of Table II; for responders at 50 mg/kg: 50 mg/kg P.O., 45 minutes after treatment, 0.3% histamine aerosol
[2] = test system: electrical stimulation of the upper laryngic nerve; assay: Antitussive properties in the Cat (test of Domenjoz, electrical stimulation of the upper laryngic nerve); format: in vivo; conditions: for inhibition in vivo at 20 mg/kg / inhibition in vivo at 10 mg/kg: Felis catus, intraduodenal, read-out: Antitussive activity, Mean (percentage of inhibition); for inhibition in vivo at 20 mg/kg: 20 mg/kg I.D.
Method: The bronchospasmolytic and also antitussive activities of these compounds were investigated by means of the following tests:
2. Investigation of Antitussive Properties in the Cat
The test used was then of Domenjoz R.(Arch. Exp. Pathol. v. Pharmacol. 215, 1952).
The electrical stimulation of the upper laryngic nerve had the following characteristics: 2v, 6 Hz square waves of 5 msec - period of stimulation 10 to 20 seconds at intervals of 7 minutes 5 seconds. The activity of the product was evaluated as a percentage of inhibition.

[3] = Cavia porcellus, po, 0.75 h, read-out: Bronchospasmolytic activity, % activity
[4] = Cavia porcellus, po, 0.75 h, P.O., linearisation method, ] [: 5% confidence limit of ED50

SMILES	ED50 [1, 4]	affinity for the bronchopulmonary system; activities (in words) [1]	inhibition in vivo at 20 mg/kg [2]	responders at 50 mg/kg [1, 3]	other results
O=C(c1ccc(Cl)cc1)N1CCC(CCN2CCN(c3ccc(F)cc3)CC2)CC1 [Compound 13]	11.6 mg/kg	particularly marked	0%	–	responders at 25 mg/kg [1, 3]: 100%
O=C(c1ccc(F)cc1)N1CCC(CCN2CCN(c3ccc(Cl)cc3)CC2)CC1 [Compound 12]	30.9 mg/kg	–	0%	70%	–
O=C(c1ccc(F)cc1)N1CCCCC1CCN1CCN(c2ccc(F)cc2)CC1 (stereo not drawn) [Compound 4, 1-(4-fluoro)-benzoyl-2-{2-[4-(4-fluoro)phenyl]piperazinyl} ethyl piperidine]	5.7 mg/kg	particularly marked	–	100%	inhibition in vivo at 10 mg/kg ([2]; 10 mg/kg I.D.): 58.6 ± 19.2%
O=C(c1ccc(Cl)cc1)N1CCCCC1CCN1CCN(c2ccc(F)cc2)CC1 (stereo not drawn) [Compound 2]	25 mg/kg	particularly marked	–	100%	inhibition in vivo at 10 mg/kg ([2]; 10 mg/kg I.D.): 0%
O=C(c1ccccc1)N1CCCCC1CCN1CCN(c2ccc(Cl)cc2)CC1 (stereo not drawn) [Compound 7]	–	–	74%	60%	–
O=C(c1ccc(Cl)cc1)N1CCC(CCN2CCN(c3ccc(Cl)cc3)CC2)CC1 [Compound 10, 1-(4-chloro)benzolyl-4-{2-[4-(4-chloro)phenyl] -piperazinyl} -ethyl piperidine]	–	–	0%	100%	–
O=C(c1ccc(F)cc1)N1CCC(CCN2CCN(c3ccc(F)cc3)CC2)CC1 [Compound 14]	0.94 mg/kg	particularly marked	44.7 ± 29.3%	–	responders at 25 mg/kg [1, 3]: 100%
O=C(c1ccc(Cl)cc1)N1CCCCC1CCN1CCN(c2cccc(Cl)c2)CC1 (stereo not drawn) [Compound 9]	13 mg/kg	–	–	80%	–
COc1ccc2c(c1)C13CCCCC1C(C2)N(C)CC3 (stereo not drawn) [Dextrome-torphane, Dextrometorphane, reference compound]	–	–	–	–	responders at 100 mg/kg [1, 3]: 0%; inhibition in vivo at 10 mg/kg [2]: 76.2 ± 34%
CN(C)CCOC(c1ccccc1)c1ccccc1 [Diphenyl-dramine, Diphenyldramine, reference compound]	–	–	–	–	responders at 10 mg/kg ([1]; Cavia porcellus, inhaled or nasal, 0.75 h, read-out: Bronchospasmolytic activity, % activity): 93%; ED50 ([1]; Cavia porcellus, po, 0.75 h): 4.5 mg/kg; inhibition in vivo at 10 mg/kg [2]: 65.3 ± 9.5%
O=C(c1ccccc1)N1CCCCC1CCN1CCN(c2ccc(F)cc2)CC1 (stereo not drawn) [Compound 1]	–	–	–	60%	inhibition in vivo at 10 mg/kg ([2]; 10 mg/kg I.D.): 73.7 ± 13.7%; antitussive properties (in words) ([2]; summary of Table II): interesting antitussive properties
